These results are taken from patent US12433875B2, “(R)-4-(1-(6-(4-(trifluoromethyl)benzyl)-6-azaspiro[2.5]octane-5-carboxamido)-cyclopropyl) benzoic acid or its salt also in polymorphic form a for use in the prevention of heterotopic ossification” (ROTTAPHARM BIOTECH S.R.L., priority 2019, dated 2025).

Test [1] has as its system Male Lewis rats (CIA model, heterotopic bone formation). Briefly: Collagen Induce Arthritis (CIA) in rats, histological scores. It counts as in vivo, rat. The source says: Collagen Induce Arthritis (CIA) in rats is among the most common models used to mimic human arthritis and especially Rheumatoid Arthritis (RA). In general the joint response seen in this model is quite similar to that observed in human pathology, in terms of inflammation, bone erosion and cartilage damage. Nevertheless, this model differs from Rheumatoid Arthritis, since it is endowed with a consistent periosteal woven bone formation (immature bone) that is not a usual feature of human RA (maybe, less than 10% of patients have this type of bone reaction). On the contrary, this disordered apposition of new bone is the distinctive feature of heterotopic ossification. Therefore, this model was used to study the effect of the compound of the invention in Pathological heretopic osteogenesis.
Male Lewis rats were immunized by intradermal injection at the base of the tail with an emulsion containing 150 μg of bovine collagen type II (bCII) in complete Freund's adjuvant (CFA) or received an injection with incomplete Freund's adjuvant (sham group). Three weeks after the first immunisation, animals were boosted with the same procedure. Three days after booster injection, arthritis had developed in all animals but the sham group. The administration of the compound (1) Form A started at this time point and lasted for 14 days (once a day, unless otherwise indicated).
The paws were fixed in 10% neutral buffered formalin (Bio-Optica, Milan, Italy) and subsequently decalcified in EDTA for 4 weeks. Samples were dehydrated in an ethanol series and embedded in paraffin. At least three non-consecutive sections for each paw were blindly scored at the level of the tarsus, metatarsus and calcaneus for the following histological features of woven bone. Two independent pathologists performed histopathology on blinded slides. The data of right and left hind limbs were summed for each rat.
In FIG. 3 the dose-response curve for the compound of the invention is reported. the compound was administered once a day for 14 days on the site where the pathological bone formation was expected as induced in the CIA model in rats. The dose were 1 mg/Kg, 3 mg/kg and 10 mg/kg. The data were expressed as the median (boxed area), 95% interquartile range (whiskers), and individual data (symbols) of the histological scores for heterotopic bone formation (osteogenesis) given by two pathologists unaware of the treatment groups on a following scale: 0=absent; 1=mild/focal; 2=moderate/multifocal; 3=severe/multifocal to diffuse. Since arthritis was bilateral, the scores for each rat was the sum of the two leg scores. […] The compound reached the maximal activity at 10 mg/kg.
The data were expressed as the median histological scores for heterotopic bone formation (osteogenesis) as described for FIG. 3. […] As for osteogenesis, the data reported in this graph were the median (boxed area), 95% interquartile range (whiskers), and individual data (symbols) of the histological scores for synovial hyperplasia (oedema) given by two pathologists unaware of the treatment groups on a following scale: 0=normal: 1-2 layers of synovial lining cells, 1=mild: focal to multifocal 3-4 layers of synovial lining cells and/or mild proliferation of subsynovial tissue, 2=moderate: focal to mutlitfocal >4-6 layers of synovial lining cells and/or moderate proliferation of subsynovial tissue, 3=severe: multifocal to diffuse >6-8 layers of synovial lining cells and/or severe proliferation of subsynovial tissue. Since arthritis was bilateral, the scores for each rat is the sum of the two leg scores. This underline a preferential and surprising effect of (R)-4-(1-(6-(4-(trifluoromethyl)benzyl)-6-azaspiro[2.5]octane-5-carboxamido)cyclopropyl)benzoic acid on the heterotopic bone formation, […].
The free acid form has been assayed in the rat CIA model as already described for its sodium salt (Form A). […]

Test [2] relates to Male DBA/1 mice (CIA model). Briefly: CIA in mice, histology of heterotopic bone formation. As to conditions: 60 mg/kg once daily for 10 days, FIG. 9. The test is classed as in vivo. As for the experimental part: CIA in mice is another very popular translational model to mimic human arthritis. […] Male DBA/1 mice were immunized by intradermal injection at the base of the tail with an emulsion of 200 μg of bCII in CFA containing 3 mg/ml Mycobacterium tuberculosis. Non-immunized mice served as the negative control of disease. Animals were monitored by visual inspection for appearance of peripheral edema. […] Upon onset, animals were recruited and randomized. Recruitment was given a cut-off at day 40. Upon recruitment, arthritis clinical score was assigned, and edema was measured via caliper. Mice were randomized into the following groups: vehicle, 30 mg/kg the form A of the sodium salt of (R)-4-(1-(6-(4-(trifluoromethyl)benzyl)-6-azaspiro[2.5]octane-5-carboxamido)cyclopropyl)benzoic acid, 60 mg/kg the form A of the sodium salt of (R)-4-(1-(6-(4-(trifluoromethyl)benzyl)-6-azaspiro[2.5]octane-5-carboxamido)cyclopropyl)benzoic acid and 60 mg/kg naproxen. Animals received the test drugs once daily for 10 days. Histology was performed as described for rats.

For the compound `CS(=O)(=O)c1ccc(C2=C(c3ccccc3)C(=O)OC2)cc1` [rofecoxib, reference compound], in test [1] (15 mg/kg each, FIG. 6b), the “control of the inflammatory response (edema; histological scores for synovial hyperplasia)” value is listed as “equally effective”. In the case of `O=C(O)c1ccc(C2(NC(=O)[C@H]3CC4(CCN3Cc3ccc(C(F)(F)F)cc3)CC4)CC2)cc1` [free acid, (R)-4-(1-(6-(4-(trifluoromethyl)benzyl)-6-azaspiro[2.5]octane-5-carboxamido)cyclopropyl)benzoic acid], the “potency in controlling osteogenesis compared with tofacitinib” value in test [1] (free acid orally 15 mg/kg once a day vs tofacitinib 5 or 25 mg/kg b.i.d.) is recorded as “superior”. Regarding `COc1ccc2cc([C@H](C)C(=O)O)ccc2c1` [naproxen, reference compound], the “new heterotopic bone formation (histology)” value in test [2] is reported as “not able to significantly affect new heterotopic bone formation”.

On to `C[C@@H]1CCN(C(=O)CC#N)C[C@@H]1N(C)c1ncnc2[nH]ccc12` [tofacitinib, reference compound], for which, in test [1] (tofacitinib 25 mg/kg b.i.d. (daily dose more than three times higher)), the “effect in controlling osteogenesis relative to the free acid at 15 mg/kg QD” value is on record as “reached the same effect in controlling osteogenesis”.
